Laboratory results reported in US8895585B2, “Nicotinamide derivative or salt thereof” (FUJIFILM Corporation, priority 2010, dated 2014).

What follows are compounds tested against T1, glutathione S-transferase (GST)-fused full-length human Syk protein (Homo sapiens, UniProt P43405) (assay: Syk enzyme assay). Conditions: Syk enzyme assay, Test Example 1; read-out: IC50 of Syk-inhibitory activity.
T1 construct: (GST)-fused full-length human Syk protein; GST (glutathione S-transferase); purchased Carna Biosciences
Format: biochemical
Procedure, shortened: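 Baculovirus-expressed enzyme (1.2 ng) was preincubated with compound in HEPES pH 7.0/MgCl2/DTT buffer, 2 min shaking then 13 min at room temperature. Biotin-EDPDYEWPSA-NH2 (0.4 μM final) and ATP (27 μM final) were added for 40 min at room temperature. EDTA stop, streptavidin-XL/PT66-K TR-FRET at 615/665 nm gave IC50.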

Structure (SMILES)	IC50
Cc1cc(C)cc(Nc2nc(NCCN)c(Cl)cc2C(N)=O)c1 [Example 035-008]	< 10 nM
NC[C@@H](Nc1nc(Nc2ccc3ncccc3c2)c(C(N)=O)cc1F)c1ccccn1 [Example 39-5, (R)-6-((2-amino-1-(pyridin-2-yl)ethyl)amino)-5-fluoro-2-((quinolin-6-yl)amino)nicotinamide]	50 to 100 nM
Cc1ccc(S(=O)(=O)Nc2cccc3cc(Nc4nc(NC5CCCC[C@@H]5N)c(F)cc4C(N)=O)cnc23)cc1 (stereo partly drawn) [Example 41-4, 6-(cis-2-aminocyclohexylamino)-5-fluoro-2-((8-(4-methylphenylsulphonamide)quinolin-3-yl)amino)nicotinamide]	50 to 100 nM
NC(=O)c1cc(F)c(NC2CCCC[C@@H]2N)nc1Nc1cnc2c(NS(=O)(=O)c3ccc(C(F)(F)F)cc3)cccc2c1 (stereo partly drawn) [Example 41-7, 6-(cis-2-aminocyclohexylamino)-5-fluoro-2-((8-(4-(trifluoromethyl)phenylsulphonamide)-quinolin-3-yl)amino)nicotinamide]	100 to 1000 nM
NC(=O)c1cc(F)c(NC2CCCC[C@@H]2N)nc1Nc1cnc2c(NS(=O)(=O)Cc3ccccc3)cccc2c1 (stereo partly drawn) [Example 41-9, 6-(cis-2-aminocyclohexylamino)-5-fluoro-2-((8-(phenylmethylsulphonamide)quinolin-3-yl)amino)nicotinamide]	10 to 50 nM
Cc1cc(Nc2nc(N[C@H](CCCN)[C@H](C)N)c(F)cc2C(N)=O)cnc1C [Example 045-000]	100 to 1000 nM
Cc1cc(Nc2nc(N[C@H](CCCN(C)C)[C@H](C)N)c(F)cc2C(N)=O)cnc1C [Example 046-000]	100 to 1000 nM

Each compound was assayed on THP-1 cells (assay: TNFα generation assay). Conditions: Homo sapiens, THP-1, 7 h, IFN-γ-differentiated THP-1 cells on human IgG-coated plate, cultured 7 hours; read-out: TNFα generation inhibitory activity (IC50).
Format: cell-based, human
Description: THP-1 cells (2×10^5 cells/ml), which were human monocytoid cells, were cultured in the presence of 10 ng/ml IFN-γ (Roche) for 2 days, so that the cells were induced to differentiate into macrophage-like cells. The differentiation-induced THP-1 cells were recovered, and the cells (1×10^6 cell/ml) were then allowed to react with a predetermined concentration of test compound at room temperature for 30 minutes. On the other hand, 100 μl of human IgG (10 μg/ml, SIGMA-ALDRICH) diluted with PBS was added to a 96-well plate, and it was then incubated at room temperature overnight. Thereafter, the resultant was washed with PBS twice to produce a human IgG-coated plate. Subsequently, a cell solution that contained a compound was inoculated on the human IgG-coated plate (5×10^4 cells/well), and it was then cultured for 7 hours. Thereafter, the cultured solution was recovered, and the amount of TNFα secreted into the culture solution was then measured by the ELISA method (Roche/R & D Systems) or the AlphaLISA method (PerkinElmer).

Structure (SMILES)	IC50
NC(=O)c1cc(F)c(N[C@@H]2CCCC[C@@H]2N)nc1Nc1cncc(-c2ccccc2)c1 (relative stereo) [Example 2-1, 6-(cis-2-aminocyclohexylamino)-5-fluoro-2-((5-phenylpyridin-3-yl)amino)nicotinamide]	≤ 200 nM
Cc1cccc(Nc2nc(N[C@@H]3CCCC[C@@H]3N)c(F)cc2C(N)=O)c1 (relative stereo) [Example 2-3, 6-(cis-2-aminocyclohexylamino)-5-fluoro-2-((3-methyl-phenyl)amino)nicotinamide]	≤ 200 nM
NC(=O)c1cc(F)c(N[C@@H]2CCCC[C@@H]2N)nc1Nc1ccc(N2CCOCC2)cc1 (relative stereo) [Example 2-5, 6-(cis-2-aminocyclohexylamino)-5-fluoro-2-((4-(morpholin-4-yl)phenyl)amino)nicotinamide]	≤ 200 nM
COc1cc(Nc2nc(N[C@@H]3CCCC[C@@H]3N)c(F)cc2C(N)=O)cc(OC)c1OC (relative stereo) [Example 2-7, 6-(cis-2-aminocyclohexylamino)-5-fluoro-2-((3,4,5-trimethoxy-phenyl)amino)nicotinamide]	≤ 200 nM
NC(=O)c1cc(F)c(N[C@@H]2CCCC[C@@H]2N)nc1Nc1ccc(N2CCOCC2)nc1 (relative stereo) [Example 2-20, 6-(cis-2-aminocyclohexylamino)-5-fluoro-2-((6-(morpholin-4-yl)pyridin-3-yl)amino)nicotinamide]	≤ 200 nM
NC(=O)c1cc(F)c(N[C@@H]2CCCC[C@@H]2N)nc1Nc1cnc2c(ccn2CCN2CCCC2)c1 (relative stereo) [Example 4-22, 6-(cis-2-aminocyclohexylamino)-5-fluoro-2-((1-(2-(pyrrolidin-1-yl)ethyl)-1H-pyrrolo[2,3-b]pyridin-5-yl)amino)nicotinamide]	≤ 200 nM
NC(=O)c1cc(F)c(N[C@@H]2CCCC[C@@H]2N)nc1Nc1ccnc2c1ccn2CCN1CCCC1 (relative stereo) [Example 4-23, 6-(cis-2-aminocyclohexylamino)-5-fluoro-2-((1-(2-(pyrrolidin-1-yl)ethyl)-1H-pyrrolo[2,3-b]pyridin-4-yl)amino)nicotinamide]	≤ 200 nM
NC(=O)c1cc(F)c(N[C@@H]2CCCC[C@@H]2N)nc1Nc1ccnc2c1ccn2CCN1CCOCC1 (relative stereo) [Example 4-25, 6-(cis-2-aminocyclohexylamino)-5-fluoro-2-((1-(2-(morpholin-4-yl)ethyl)-1H-pyrrolo[2,3-b]pyridin-4-yl)amino)nicotinamide]	≤ 200 nM
NC(=O)c1cc(F)c(N[C@@H]2CCCC[C@@H]2N)nc1Nc1cnc2ncsc2c1 (relative stereo) [Example 4-26, 6-(cis-2-aminocyclohexylamino)-5-fluoro-2-(([1,3]thiazolo[4,5-b]pyridin-6-yl)amino)nicotinamide]	≤ 200 nM
CCN(CC)CCn1ccc2c(Nc3nc(N[C@@H]4CCCC[C@@H]4N)c(F)cc3C(N)=O)ccnc21 (relative stereo) [Example 4-28, 6-(cis-2-aminocyclohexylamino)-2-((1-(2-(diethylamino)ethyl)-1H-pyrrolo[2,3-b]pyridin-4-yl)amino)-5-fluoronicotinamide]	≤ 200 nM
NC(=O)c1cc(F)c(N[C@@H]2CCCC[C@@H]2N)nc1Nc1ccnc2c1ccn2CC1CC1 (relative stereo) [Example 4-40, 6-(cis-2-aminocyclohexylamino)-2-((1-(cyclopropylmethyl)-1H-pyrrolo[2,3-b]pyridin-4-yl)amino)-5-fluoronicotinamide]	≤ 200 nM
NC(=O)c1cc(F)c(N[C@@H]2CCCC[C@@H]2N)nc1Nc1cncc(-n2nccn2)c1 (relative stereo) [Example 4-42, 6-(cis-2-aminocyclohexylamino)-5-fluoro-2-((5-(2H-1,2,3-triazol-2-yl)pyridin-3-yl)amino)nicotinamide]	≤ 200 nM
NC(=O)Nc1cccc2cc(Nc3nc(N[C@@H]4CCCC[C@@H]4N)c(F)cc3C(N)=O)cnc12 (relative stereo) [Example 4-64, 2-((8-(aminocarbonyl)amino-quinolin-3-yl)amino)-6-(cis-2-amino-cyclohexylamino)-5-fluoronicotinamide]	≤ 200 nM
NC(=O)c1cc(F)c(N[C@@H]2CCCC[C@@H]2N)nc1Nc1ccc2nsnc2c1 (relative stereo) [Example 6-34, 6-(cis-2-aminocyclohexylamino)-2-((benzo[c][1,2,5]thiadiazol-5-yl)amino)-5-fluoronicotinamide]	≤ 200 nM
NC(=O)c1cc(F)c(N[C@@H]2CCCC[C@@H]2N)nc1Nc1ccc2ncsc2c1 (relative stereo) [Example 6-35, 6-(cis-2-aminocyclohexylamino)-2-((benzo[d]thiazol-6-yl)amino)-5-fluoronicotinamide]	≤ 200 nM
Cn1ncc2ccc(Nc3nc(N[C@@H]4CCCC[C@@H]4N)c(F)cc3C(N)=O)cc21 (relative stereo) [Example 6-40, 6-(cis-2-aminocyclohexylamino)-5-fluoro-2-((1-methyl-1H-indazol-6-yl)amino)nicotinamide]	≤ 200 nM
Cc1nc2ccc(Nc3nc(N[C@@H]4CCCC[C@@H]4N)c(F)cc3C(N)=O)cc2o1 (relative stereo) [Example 6-43, 6-(cis-2-aminocyclohexylamino)-5-fluoro-2-((2-methylbenzo[d]oxazol-6-yl)amino)nicotinamide]	≤ 200 nM
Cc1nc2cc(Nc3nc(N[C@@H]4CCCC[C@@H]4N)c(F)cc3C(N)=O)ccc2o1 (relative stereo) [Example 6-46, 6-(cis-2-aminocyclohexylamino)-5-fluoro-2-((2-methylbenzo[d]oxazol-5-yl)amino)nicotinamide]	≤ 200 nM
Cn1cnc2cc(Nc3nc(N[C@@H]4CCCC[C@@H]4N)c(F)cc3C(N)=O)ccc21 (relative stereo) [Example 6-65, 6-(cis-2-aminocyclohexylamino)-5-fluoro-2-((1-methyl-1H-benzo[d]imidazol-5-yl)amino)nicotinamide]	≤ 200 nM
Cc1ccc2cc(Nc3nc(N[C@@H]4CCCC[C@@H]4N)c(F)cc3C(N)=O)ccc2n1 (relative stereo) [Example 6-70, 6-(cis-2-aminocyclohexylamino)-5-fluoro-2-((2-methylquinolin-6-yl)amino)nicotinamide]	≤ 200 nM
NC(=O)c1cc(F)c(N[C@@H]2CCCC[C@@H]2N)nc1Nc1ccc2cccnc2c1 (relative stereo) [Example 6-72, 6-(cis-2-aminocyclohexylamino)-5-fluoro-2-(quinolin-7-ylamino)nicotinamide]	≤ 200 nM
Cn1ncc2c(Nc3nc(N[C@@H]4CCCC[C@@H]4N)c(F)cc3C(N)=O)cccc21 (relative stereo) [Example 6-75, 6-(cis-2-aminocyclohexylamino)-5-fluoro-2-((1-methyl-1H-indazol-4-yl)amino)nicotinamide]	≤ 200 nM
Cc1cnc2cc(Nc3nc(N[C@@H]4CCCC[C@@H]4N)c(F)cc3C(N)=O)ccc2n1 (relative stereo) [Example 6-76, 6-(cis-2-aminocyclohexylamino)-5-fluoro-2-((2-methylquinoxalin-6-yl)amino)nicotinamide]	≤ 200 nM

Same assay, conditions: Homo sapiens, THP-1, THP-1 cells; Table 22; read-out: IC50 in TNFα generation assay

Structure (SMILES)	IC50
Cc1nc2ccc(Nc3nc(N[C@@H]4CCCC[C@@H]4N)c(F)cc3C(N)=O)cc2o1 (relative stereo) [Example 006-043, 6-(cis-2-aminocyclohexylamino)-5-fluoro-2-((2-methylbenzo[d]oxazol-6-yl)amino)nicotinamide]	130 to 200 nM
